Experimental data reported in patent US4853470A, “3-(piperidinyl)- and 3-(pyrrolidinyl)-1H-indazoles” (Hoechst-Roussel Pharmaceuticals, Inc., priority 1988, dated 1989).
Values joined by “and” are separate entries in the source; they are usually repeats but may differ in a detail not shown here. Equal values may be shown once. Read-outs that look alike come from different tables or passages of the source.

What was measured:
[1] = system: supramaximal electroshock (extensor tonus); test: supramaximal electroshock (SES) assay, anticonvulsant activity; type: in vivo, male mouse; conditions: for ED50 SES: i.p.; for ED50 SES / ED50: 206 volts rms for 300 msec; for SES, % protection (normalized percent inhibition) at indicated dose: @ 60 mg/kg i.p.; for ED50: Mus musculus, ip
Method: The compounds of the invention are also useful as anticonvulsants due to their anticonvulsant activity in mammals. Anticonvulsant activity is measured in the male mouse using the supramaximal electroshock (SES) assay described in Arch. Int. Pharmacodyn. 92: 97-107, 1952. In this procedure groups of animals are used. Drugs are prepared using distilled water and, if insoluble, a surfactant is added. Control animals receive vehicle. Drugs are routinely administered intraperitoneally (i.p.). The dosage volume is 10 ml/kg. A primary screen is given a 30 minute pretreat. The animal's eyes are placed across the output terminals of an A.C. shocker that delivers 206 volts rms for 300 msec. Electrode paste coats the animals eyes at the point of contact with the terminals. […] Protection is expressed as normalized percent inhibition relative to vehicle control.
A time response is carried out using six animals/group. Animals are tested at 30, 60 and 120 minutes postdrug. Additional time periods are tested if indicated by previous tests. When the peak activity time has been determined, a dose response is initiated using 10 animals/group at that time period. The ED50 and 95% confidence interval are calculated by computer probit analysis.

[2] = system: metrazol lethality (pentylenetetrazol); test: metrazol lethality (MTZ), anticonvulsant activity; type: in vivo, male mice; conditions: for ED50: Mus musculus, ip; for MTZ, % protected at indicated dose: @ 60 mg/kg i.p.
Method: Anticonvulsant activity is also measured using the metrazol lethality (MTZ). In this procedure groups of male mice are utilized. Test drugs are prepared using distilled water and, if insoluble, a suitable surfactant is added. The route of administration is i.p., but all administration are in volumes proportional to 10 cc/kg.
For a time response, 25 animals (5/group) are administered drug i.p. at 15, 30, 60 and 90 minutes prior to Metrazol treatment. Control animals (2/group) receive vehicle. Metrazol (pentylenetetrazol) is prepared at a concentration of 225 mg/10 ml in distilled water. Metrazol is administered s.c. at 225 mg/kg in distilled water. Those animals alive 15 minutes after Metrazol injection are considered protected. The time period with the greatest percent protected is said to be that of peak drug activity.
A dose range is run in the same manner as a time response except that 50 animals (10/group) are tested at the peak time of drug activity. One group receives vehicle. An ED50 is calculated by means of linear regression.

[3] = system: tetrabenazine induced ptosis; test: tetrabenazine induced ptosis assay (antidepressant activity); type: in vivo, mice; conditions: Mus musculus, ip; estimated 50% inhibition; read-out: ED50, inhibition of ptosis
From the text: The 3-(piperidinyl)- and 3-(pyrrolidinyl)-1H-indazoles of the present invention are also useful as antidepressants by virtue of their ability to elicit an antidepressant response in mammals. […] Thus, for example,. the intraperitoneal (i.p.) dose effecting an estimated 50% inhibition of ptosis (ED50) in mice produced in this assay is as follows: […]

apomorphine climbing = apomorphine climbing mice assay (antipsychotic activity); type: in vivo, mice (CK-1 male); conditions: for ED50: Mus musculus, ip, read-out: ED50, antipsychotic activity (climbing); for % decrease in climbing score at indicated dose: @ 10 mg/kg, i.p.
Method: Antipsychotic activity is determined in the climbing mice assay by methods similar to those described by P. Protais, et al., Psychopharmacol., 50, 1 (1976) and B. Costall, Eur. J. Pharmacol., 50, 39 (1978).
The subject CK-1 male mice (23-27 grams) are group-housed under standard laboratory conditions. The mice are individually placed in wire mesh stick cages (4"×4" by 10") and are allowed one hour for adaptation and exploration of the new environment. Then apomorphine is injected subcutaneously at 1.5 mg/kg, a dose causing climbing in all subjects for 30 minutes. Compounds to be tested for antipsychotic activity are injected intraperitoneally (i.p.) 30 minutes prior to the apomorphine challenge at a screening dose of 10 mg/kg.
For evaluation of climbing, 3 readings are taken at 10, 20, and 30 minutes after apomorphine administration according to the following scale:
4 paws on bottom (no climbing)
2 paws on the wall (rearing)
4 paws on the wall (full climb)
Mice consistently climbing before the injection of apomorphine will be discarded.
With full-developed apomorphine climbing, the animals are hanging onto the cage walls, rather motionless, over longer periods of time. By contrast, climbs due to mere motor stimulation usually only last a few seconds.
The climbing scores are individually totaled (maximal score: 6 per mouse over 3 readings) and the total score of the control group (vehicle intraperitoneally-apomorphine subcutaneously) is set to 100%. ED50 values with 95% confidence limits, calculated by a Linear Regression Analysis of some of the instant 3-(piperidinyl)-1H-indazoles and 3-(pyrrolidinyl)-1H-indazoles as well as standard antipsychotics, are presented in Table 1.

[4] = system: phenyl-p-quinone writhing; test: phenyl-p-quinone writhing assay (analgesia); type: in vivo, mice; conditions: for ED50: Mus musculus, sc, read-out: ED50, inhibition of writhing; for inhibition of writhing at indicated dose: @ 20 mg/kg, s.c.
[5] = 30 minutes prior to apomorphine 1.5 mg/kg s.c.

For “1-(2-Phenylethyl)-3-(1-methyl-4-piperidinyl)-1H-indazole hydrobromide [Example 14]”, the “ED50 SES” value [1] was 34.9 mg/kg.
In the case of “1-(4-Nitrophenyl)-3-(1-methyl-4-piperidinyl)-1H-indazole hydrochloride [Example 7]”, the “SES, % protection (normalized percent inhibition) at indicated dose” value [1] is reported as 0%.
In the case of “1-(6-Fluoro-1,2-benzisoxazole-3-propyl)-3-(1-methyl-4-piperidinyl)-1H-indazole maleate [Example 11]”, the “ED50 MTZ” value ([2]; i.p., Metrazol 225 mg/kg s.c.) is reported as 79.6 mg/kg.
For “1-Hydroxymethyl-3-(1-methyl-4-piperidinyl)-1H-indazole [Example 10]”, the “ED50 SES” value [1] was 35.3 mg/kg.
`CN1CCC(c2nn(-c3ccccc3N)c3ccccc23)CC1.O=C(O)/C=C/C(=O)O` [1-(2-Aminophenyl)-3-(1-methyl-4-piperidinyl)-1H-indazole fumarate] showed an ED50 [3] of 19.2 mg/kg.
`CN1CCC(c2nn(-c3ccccc3Cl)c3ccccc23)CC1.O=C(O)/C=C/C(=O)O` [1-(2-Chlorophenyl)-3-(1-methyl-4-piperidinyl)-1H-indazole fumarate] gave an ED50 [3] of 5.3 mg/kg.
For `Clc1ccccc1-n1nc(C2CCNCC2)c2ccccc21.O=C(O)/C=C/C(=O)O` [1-(2-Chlorophenyl)-3-(4-piperidinyl)-1H-indazole fumarate], the ED50 [3] was 5.9 mg/kg.
For `CC(=O)n1nc(C2CCN(C)CC2)c2ccccc21.Cl` [1-Acetyl-3-(1-methyl-4-piperidinyl)-1H-indazole hydrochloride], the ED50 (apomorphine climbing) was 5.4 mg/kg and the ED50 [4] was 0.71 mg/kg.
`CN1CCC(c2nn(C(=O)c3ccccc3)c3ccccc23)CC1.Cl` [1-Benzoyl-3-(1-methyl-4-piperidinyl)-1H-indazole hydrochloride] was tested, and the ED50 (apomorphine climbing; [5]) was 6.5 mg/kg and the ED50 ([4]; approximately 50% inhibition) was 0.85 mg/kg.
Molecule `CN1CCC(c2nn(C(=O)c3ccccc3)c3cc(F)ccc23)CC1.O=C(O)/C=C/C(=O)O` [1-Benzoyl-6-fluoro-3-(1-methyl-4-piperidinyl)-1H-indazole fumarate] has an ED50 (apomorphine climbing; [5]) of 1.8 mg/kg and an ED50 ([4]; approximately 50% inhibition) of 0.17 mg/kg.
`Br.CN1CCC(c2nn(CC3CC3)c3ccccc23)CC1` [1-Cyclopropylmethyl-3-(1-methyl-4-piperidinyl)-1H-indazole hydrobromide] was tested, and the “% decrease in climbing score at indicated dose” value (from here on “% decrease in climbing score”) (apomorphine climbing) was 36% and the ED50 ([4]; approximately 50% inhibition) was 1.1 mg/kg.
For `Br.CCn1nc(C2CCN(C)CC2)c2ccccc21` [1-Ethyl-3-(1-methyl-4-piperidinyl)-1H-indazole hydrobromide], the “% decrease in climbing score” value (apomorphine climbing) was 41% and the ED50 [4] was 0.65 mg/kg.
In the case of `Br.CN1CCC(c2nn(Cc3ccccc3)c3ccccc23)CC1` [1-Phenylmethyl-3-(1-methyl-4-piperidinyl)-1H-indazole hydrobromide], the “inhibition of writhing at indicated dose” value ([4]; hydrobromide) is reported as 75% and 96%.
With `CN(C)CCCn1nc(C2CCN(C)CC2)c2ccccc21.O=C(O)/C=C/C(=O)O.O=C(O)/C=C/C(=O)O` [1-[3-(Dimethylamino)propyl]-3-(1-methyl-4-piperidinyl)-1H-indazole difumarate] the “inhibition of writhing at indicated dose” value [4] was 15%.
Work on `CN1CCC(c2nn(-c3ccc(C(F)(F)F)cc3)c3ccccc23)CC1.Cl` [3-(1-Methyl-4-piperidinyl)-1-[4-(trifluoromethyl)phenyl]-1H-indazole hydrochloride] yielded an ED50 ([4]; approximately 50% inhibition) of 9.8 mg/kg.
For `CN1CCC(c2nn(C(=O)OCC(Cl)(Cl)Cl)c3ccccc23)CC1.Cl` [3-(1-Methyl-4-piperidinyl)-1-trichloroethoxycarbonyl-1H-indazole hydrochloride], the “% decrease in climbing score” value (apomorphine climbing) was 46%.
Molecule `CN1CCC(c2n[nH]c3ccccc23)CC1` [3-(1-methyl-4-piperidinyl)-1H--indazole, 3-(1-Methyl-4-piperidinyl)-1H-indazole] has an ED50 (apomorphine climbing) of 4.5 mg/kg and an ED50 [4] of 0.26 mg/kg.
`Fc1ccc(C(CCCN2CCC(c3n[nH]c4ccccc34)CC2)c2ccc(F)cc2)cc1` [3-[1-[4,4-bis(4-Fluorophenyl)butyl]-4-piperidinyl]-1H-indazole] was tested, and the ED50 (apomorphine climbing; [5]) was 7.4 mg/kg and the “inhibition of writhing at indicated dose” value [4] was 31%.
`CNC(=O)N1CCC(c2nn(-c3ccccc3F)c3ccccc23)CC1` [Compound 1] showed an ED50 ([2]; Metrazol 225 mg/kg s.c.) of 49 mg/kg and an ED50 [1] of 37 mg/kg.
In the case of `O=C(Nc1ccccc1)N1CCC(c2nn(-c3ccccc3)c3cc(F)ccc23)CC1` [Compound 2, N-Phenyl-4-(6-fluoro-1-phenyl-1H-indazol-3-yl)piperidine-1-carboxamide], the “MTZ, % protected at indicated dose” value [2] is reported as 20% and the “SES, % protection (normalized percent inhibition) at indicated dose” value [1] is reported as 0%.
For `Br.NC(=O)N1CCC(c2nn(-c3ccc(C(F)(F)F)cc3)c3ccccc23)CC1` [Compound 3, 4-[1-[4-(Trifluoromethyl)phenyl]-1H-indazol-3-yl]-1-piperidine carboxamide hydrobromide], the ED50 ([2]; Metrazol 225 mg/kg s.c.) was 27.4 mg/kg and the ED50 [1] was 10.9 mg/kg.
For `CNC(=O)N1CCC(c2nn(-c3ccccc3)c3cc(F)ccc23)CC1` [Compound 4, N-Methyl-4-(6-fluoro-1-phenyl-1H-indazol-3-yl)piperidine-1-carboxamide], the “MTZ, % protected at indicated dose” value [2] was 0% and the ED50 [1] was 64.9 mg/kg.
For `Fc1ccc2c(C3CCN(C(=S)Nc4ccccc4)CC3)nn(-c3ccccc3)c2c1` [Compound 5, N-Phenyl-4-(6-fluoro-1-phenyl-1H-indazol-3-yl)piperidine-1-carbothioamide], the “MTZ, % protected at indicated dose” value [2] was 17% and the “SES, % protection (normalized percent inhibition) at indicated dose” value [1] was 0%.
In the case of `CNC(=O)N1CCC(c2nn(-c3ccc(C(F)(F)F)cc3)c3ccccc23)CC1` [Compound 6], the “MTZ, % protected at indicated dose” value [2] is reported as 20% and the ED50 [1] is reported as 44.9 mg/kg.
`CC(=O)N1CCC(c2nn(-c3ccccc3)c3cc(Br)ccc23)CC1` [Compound 8, 1-Acetyl-4-(6-bromo-1-phenyl-1H-indazol-3-yl)piperidine] was tested, and the “MTZ, % protected at indicated dose” value [2] was 0% and the “SES, % protection (normalized percent inhibition) at indicated dose” value [1] was 33%.
With `CNC(=O)N1CCC(c2nn(-c3ccc(F)cc3)c3ccccc23)CC1` [Compound 9] the ED50 ([2]; Metrazol 225 mg/kg s.c.) was 45.5 mg/kg and the ED50 [1] was 31.7 mg/kg.
`O=CN1CCC(c2nn(-c3ccc(C(F)(F)F)cc3)c3ccccc23)CC1` [Compound 12] gave an ED50 ([2]; Metrazol 225 mg/kg s.c.) of 60.9 mg/kg and an ED50 [1] of 27.2 mg/kg.
For `O=CN1CCC(c2nn(-c3ccc(F)cc3)c3ccccc23)CC1` [Compound 13], the “MTZ, % protected at indicated dose” value [2] was 40% and the ED50 [1] was 24.7 mg/kg.
Molecule `NC(=O)N1CCC(c2nn(-c3ccccc3)c3cc(Cl)ccc23)CC1` [Compound 15, 4-(6-Chloro-1-phenyl-1H-indazol-3-yl)piperidine-1-carboxamide] has an ED50 ([2]; Metrazol 225 mg/kg s.c.) of 31.2 mg/kg and an ED50 [1] of 48.1 mg/kg.
In the case of `CN(C)C(=O)N1CCC(c2nn(-c3ccc(C(F)(F)F)cc3)c3ccccc23)CC1` [Compound 16], the “MTZ, % protected at indicated dose” value [2] is reported as 20% and the “SES, % protection (normalized percent inhibition) at indicated dose” value [1] is reported as 20%.
`O=C(CCCN1CCC(O)(c2ccc(Cl)cc2)CC1)c1ccc(F)cc1` [haloperidol, reference compound] gave an ED50 (apomorphine climbing) of 0.11 mg/kg.
For `CC(C)=CCN1CCC2(C)c3cc(O)ccc3CC1C2C` (stereo not shown) [pentazocine, reference compound], the ED50 [4] was 1.3 mg/kg.
With `CCC(=O)O[C@](Cc1ccccc1)(c1ccccc1)[C@H](C)CN(C)C` [propoxyphene, reference compound] the ED50 [4] was 3.9 mg/kg.
